# Results as given in patent US20130005699A1, “METHODS AND PRODUCTS FOR TREATMENT OF DISEASES” (DMI ACQUISITION CORP., priority 2009, published 2013).
# Like-named read-outs stand apart in the source and are kept apart here.
# Tests used:
# [1] = test system: RhoA; assay: Rho activation assay (GLISA) in retinal endothelial cells; assay type: cell-based, human
# Experimental: This experiment was performed using a commercially-available Rho activation assay (GLISA) purchased from Cytoskeleton, Denver, Colo., following the manufacturer's protocol. […] Test compounds diluted in HBSS were placed in the incubator to equilibrate before addition to the cells. Then, 150 μl of each test compound was added to the appropriate culture wells, and the plates were incubated in the incubator for an additional 15 minutes. Then, thrombin was added to appropriate wells. After 1 minute, the cells were washed one time with 1.5 ml phosphate buffered saline and were then lysed with 100 μl GLISA lysis buffer supplemented with protease inhibitors. The extracts were scraped, transferred to microcentrifuge tubes and transferred to ice to preserve the active form of RhoA. All extracts were then cleared of debris by spinning at 10,000 rpms for 2 minutes at 4° C. The supernatants were transferred to new tubes and placed back on ice. Aliquots of each extract were removed for the GLISA assay and for protein determinations. All protein concentrations were within 10%, and the extracts were used at the achieved concentrations (equates to 15 μg total protein per well). The GLISA assay was performed using the reagents supplied in the kit.
# [2] = test system: HUVECs; assay: HUVEC invasion (BioCoat Matrigel Invasion Chambers); assay type: cell-based, human; conditions: 24 hours
# Experimental: BioCoat Matrigel Invasion Chambers were purchased from BD Biosciences (San Jose, Calif.). Inserts were rehydrated at 37° C. with 500 μl HBSS for 2 hours prior to use in humidified incubator. Trypsinized HUVECs were washed twice with warm EGM-2 containing 0.1% FCS and added to the upper chamber of the invasion insert at 100,000 cells in a total volume of 250 μl. […]. Non-invasive cells were removed from the upper chamber with moistened cotton swabs and then the inserts were washed twice with HBSS. The inserts were then submerged in 10 μM calcein AM prepared in HBSS and incubated for 4 hours. Fluorescence was determined in a microplate reader at 485 nm excitation and 595 nm emission.
# All data is presented as representative experiment done in triplicate. Differences between subsets were analyzed using student t-test in Microsoft Excel. P<0.05 was considered statistically significant.
# [3] = test system: human renal glomerular microvascular endothelial cells; assay: Actin stress fiber formation (Example 11), glomerular cells; conditions: for F-actin staining pattern: danazol 1 μM alone
# [4] = test system: human renal glomerular microvascular endothelial cells; assay: ECIS resistance (Example 13), glomerular cells, medium without dexamethasone
# [5] = test system: Primary human umbilical vein endothelial cells (HUVECs); assay: HUVEC cell proliferation (Celltiter 96 AQueous One Solution assay); assay type: cell-based
# Experimental: Primary human umbilical vein endothelial cells (HUVECs) and EGM-2 growth medium were obtained from Cambrex (Walkersville, Md.). The cells were passaged in medium supplemented with 2% fetal calf serum (FCS) in tissue culture flasks at 37° C. and 5% CO2. Subculturing was performed using trypsin when 60-80% confluence was obtained as specified by the supplier.
# Cryopreserved ampoules of passage 2 HUVECs were thawed and plated in 96 well tissue culture plates at 5,000 cells/cm^2. […] In short, medium was aspirated from each well and the cells were washed with 200 μl […] (HBSS) from Cambrex warmed to 37° C. 100 μl diluted celltiter solution (15 μl stock+85 μl EGM-2 containing 0.1% FCS) were added to each well and incubated for an additional 4 hours. Optical density was determined by microplate reader using a 530 nm filter after blank subtraction and data presented as OD±standard deviation.
# All data are presented as representative experiment done in triplicate. Differences between subsets were analyzed using student t-test in Microsoft Excel. P<0.05 was considered statistically significant.
# [6] = test system: human retinal endothelial cells; assay: Actin stress fiber formation, rhodamine-phalloidin staining, TNFα (Example 7); conditions: 30 minutes
# [7] = passage 8 cells, 0.1 U/ml Thrombin + 1.0 μM compound
# [8] = passage 12 cells, 0.1 U/ml Thrombin + 1.0 μM compound
# [9] = Homo sapiens, HUVEC, 24 h, read-out: percent inhibition
# [10] = Homo sapiens, HUVEC, 48 h, read-out: percent inhibition
# [11] = Homo sapiens, HUVEC, 72 h, read-out: inhibition
structure (smiles),measurement,setting,value
"C#C[C@]1(O)CC[C@H]2[C@@H]3CCC4=Cc5oncc5C[C@]4(C)[C@H]3CC[C@@]21C [Danazol, 17α-pregna-2,4-dien-20-yno[2,3-d]-isoxazol-17β-ol]",Percent Inhibition vs. Untreated Control,"[1]; passage 8 cells, 1.0 μM",73.89%
same,Mean OD (active RhoA),"[1]; passage 8 cells, 1.0 μM, no thrombin, Untreated 0.102",0.027
same,Mean OD (active RhoA),[1]; [7],0.373
same,Percent Inhibition vs. Thrombin,[1]; [7],41.02%
same,Percent Inhibition vs. Untreated Control,"[1]; passage 12 cells, 1.0 μM",6.82%
same,Mean OD (active RhoA),"[1]; passage 12 cells, 1.0 μM, no thrombin, Untreated 0.455",0.424
same,Mean OD (active RhoA),[1]; [8],0.859
same,Percent Inhibition vs. Thrombin,[1]; [8],27.57%
same,effect on FCS-induced cell invasion,[2]; 10 μM,no effect
same,effect on FCS-induced cell invasion,[2]; 100 μM,no effect
same,F-actin staining pattern,[3]; 15 minutes,perinuclear staining
same,F-actin staining pattern,[3]; 3 hours,diffuse staining throughout the cells with ruffled edges on many of the cells
same,F-actin staining pattern,[3]; 24 hours,staining similar to untreated controls
same,effect on S1P-induced cortical actin rings,[3]; danazol 1 μM with S1P 1 μM,seemed to enhance the cortical rings
same,effect on TNFα-induced stress fibers,"[3]; danazol 1 μM with TNFα 1 ng/ml, all times",decreased the stress fiber formation and the thickness of the fibers at all times
same,persistence of increased ECIS,[4]; danazol 1 μM alone,about 90 hours
same,start of increase of ECIS compared to untreated cells,[4]; danazol 1 μM alone,about 3 hours
same,enhancement of ECIS (TER) compared to dexamethasone,[4]; danazol 1 μM versus dexamethasone 1 μM,not as great
same,OD,"[5]; 0.1 μM danazol, 72 hours, nil wells 1.113±0.054",0.798±0.037
same,OD,"[5]; 1 μM danazol, 48 hours, nil 0.629±0.095",0.378±0.037
same,OD,"[5]; 1 μM danazol, 72 hours, nil wells 1.113±0.054",0.484±0.022
same,OD,"[5]; 10 μM danazol, 24 hours, nil wells 0.414±0.06",0.288±0.037
same,OD,"[5]; 10 μM danazol, 48 hours, nil 0.629±0.095",0.241±0.012
same,OD,"[5]; 10 μM danazol, 72 hours, nil wells 1.113±0.054",0.229±0.016
same,OD,"[5]; 100 μM danazol, 24 hours, nil wells 0.414±0.06",0.162±0.017
same,OD,"[5]; 100 μM danazol, 48 hours, nil 0.629±0.095",0.19±0.033
same,OD,"[5]; 100 μM danazol, 72 hours, nil wells 1.113±0.054",0.156±0.018
same,effect on cell proliferation,"[5]; 100 μM danazol, all time points",complete arrest of cell proliferation
same,inhibition at 10 µM,[5]; [9],30%
same,inhibition at 100 µM,[5]; [9],65%
same,inhibition at 1 µM,[5]; [10],40%
same,inhibition at 10 µM,[5]; [10],61%
same,inhibition at 100 µM,[5]; [10],70%
same,inhibition at 0.1 µM,"[5]; Homo sapiens, HUVEC, 72 h",28%
same,inhibition at 1 µM,[5]; [11],57%
same,inhibition at 10 µM,[5]; [11],80%
same,inhibition at 100 µM,[5]; [11],86%
same,effect on stress fiber development with TNFα,"[6]; danazol 0.1 μM or 10 μM, TNFα 50 ng/ml",decreased the number of cells exhibiting stress fiber development
same,F-actin staining pattern,[6]; danazol 0.1 μM,diffuse staining throughout the cytoplasm
same,F-actin staining pattern,[6]; danazol 10.0 μM,stress fibers with multiple focal points
